Results on 32 compounds are retold here after publication PMC12040169 (PLOS Biology, 2025).

The series can be described thus: in vitro. The following applies: human, hela cells, % viability.

In the case of `CCN(CC)C(=O)c1sc2ncccc2c1NS(=O)(=O)c1cc(Cl)sc1Cl` [CBK050615], the viability at 28.5 h, 10 µM amounted to 92.2%.

For `CCN(CC)C(=O)c1sc2ncccc2c1NS(=O)(=O)c1c(C)noc1C` [CBK050617], the viability at 28.5 h, 10 µM turned out to be 115%.

On to `COc1ccc(S(=O)(=O)Nc2nccnc2-c2ccc(CN3C(=O)CCC3=O)cc2)cc1` [CBK050699], for which the viability at 28.5 h, 10 µM stood at 110%.

With `CC(=O)Nc1cccc(-c2nccnc2NS(=O)(=O)c2cccs2)c1` [CBK050760], the viability at 28.5 h, 10 µM was determined as 92.7%.

With `CCCS(=O)(=O)Nc1nccnc1-c1cccs1` [CBK050763], the viability at 28.5 h, 10 µM came to 89.4%.

With `O=S(=O)(Cc1ccccc1)Nc1nccnc1-c1cccs1` [CBK050766], the viability at 28.5 h, 10 µM was 91.3%.

As to `CCCCc1ccc(S(=O)(=O)Nc2nccnc2-c2cccs2)cc1` [CBK050770], the viability at 28.5 h, 10 µM was determined as 90.4%.

With `COc1ccc(S(=O)(=O)Nc2nccnc2-c2cccs2)cc1OC` [CBK050774], the viability at 28.5 h, 10 µM stood at 104%.

Regarding `CN(C)c1ccc(-c2nccnc2NS(=O)(=O)c2ccc3ccccc3c2)cc1` [CBK050794], the viability at 28.5 h, 10 µM came out at 93.4%.

With `CN(C)c1ccc(-c2nccnc2NS(=O)(=O)c2ccc(C(F)(F)F)cc2)cc1` [CBK050802], the viability at 28.5 h, 10 µM came to 95.1%.

Regarding `CN(C)c1ccc(-c2nccnc2NS(=O)(=O)c2cccs2)cc1` [CBK050804], the viability at 28.5 h, 10 µM stood at 90.5%.

`O=C(O)c1nccnc1-c1ccc(COc2ccccc2)cc1` [CBK050806]: the viability at 28.5 h, 10 µM came to 90.2%.

Regarding `O=C(O)c1nccnc1-c1ccc(COc2cccc3ccccc23)cc1` [CBK050810], the viability at 28.5 h, 10 µM amounted to 95.4%.

Turning to `O=C(O)c1nccnc1-c1ccc(Cn2ccc3ccccc32)cc1` [CBK050811], the viability at 28.5 h, 10 µM turned out to be 100%.

In the case of `Cc1nc2cc(OCc3ccc(-c4nccnc4-c4nnn[nH]4)cc3)ccc2s1` [CBK050820], the viability at 28.5 h, 10 µM worked out at 108%.

As for `O=C(NCc1ccncc1)c1nccnc1-c1ccc(COc2ccccc2)cc1` [CBK050836], the viability at 28.5 h, 10 µM amounted to 88.1%.

As for `O=C(Nc1nccs1)c1nccnc1-c1ccc(COc2ccccc2)cc1` [CBK050839], the viability at 28.5 h, 10 µM turned out to be 95.6%.

On to `O=C(NO)c1nccnc1-c1ccc(COc2ccccc2)cc1` [CBK050841], for which the viability at 28.5 h, 10 µM came out at 96.4%.

Consider `O=C(NCCOc1ccccc1)c1nccnc1-c1ccc(COc2ccc3c(c2)CCCC3)cc1` [CBK050852], for which the viability at 28.5 h, 10 µM was determined as 91.2%.

With `CCCS(=O)(=O)Nc1nccnc1-c1ccc(Oc2ccccc2)cc1` [CBK050908], the viability at 28.5 h, 10 µM was determined as 106%.

On to `CS(=O)(=O)Nc1nccnc1-c1ccc2c(c1)OCO2` [CBK050934], for which the viability at 28.5 h, 10 µM amounted to 95.1%.

Turning to `Cc1ccccc1S(=O)(=O)Nc1nccnc1-c1ccc2c(c1)OCO2` [CBK050941], the viability at 28.5 h, 10 µM worked out at 122%.

In the case of `O=S(=O)(Nc1nccnc1-c1ccc2c(c1)OCO2)c1cccc(Cl)c1` [CBK050951], the viability at 28.5 h, 10 µM was 92.4%.

Consider `CN1CCN(c2cc(-c3ccncc3)nc3ccccc23)CC1` [CBK050976B], for which the viability at 28.5 h, 10 µM is 89.1%.

On to `O=S(=O)(Nc1ccc2nsnc2c1)c1ccc(F)cc1` [CBK051010], for which the viability at 28.5 h, 10 µM is 90.2%.

For `COc1ccc([C@@]23CC[C@@H](NC(=O)Nc4ccon4)C[C@@H]2N(C)CC3)cc1OC` [CBK051069T], the viability at 28.5 h, 10 µM is 97%.

Regarding `CCOC(=O)C1CCN(S(=O)(=O)c2ccccc2)CC1` [CBK051091], the viability at 28.5 h, 10 µM came to 107%.

Take `O=C(NCCc1c[nH]c2ccccc12)NC(=O)C1CCNCC1` [CBK051094]: the viability at 28.5 h, 10 µM was 90.2%.

Consider `C=CCN1CCC(C(=O)NC(=O)NCC2COc3ccccc3O2)CC1` (centres unmarked) [CBK051099], for which the viability at 28.5 h, 10 µM was found to be 84.2%.

For `CCOC(=O)C1CCN(S(=O)(=O)c2ccccc2C#N)CC1` [CBK051111], the viability at 28.5 h, 10 µM is 93.6%.

With `CCOC(=O)C1CCN(S(=O)(=O)c2c(C)noc2C)CC1` [CBK051112], the viability at 28.5 h, 10 µM worked out at 96.9%.

Consider `Cc1ccc(S(=O)(=O)N2CCCCC2CO)cc1` (centres unmarked) [CBK051142], for which the viability at 28.5 h, 10 µM turned out to be 114%.
